In patent US8686150B2 (Sanofi, priority 2011, dated 2014):

Each compound was assayed against T1, human full-length recombinant PKC βII (Homo sapiens, UniProt P05771) (assay: Determination of PKC βII inhibition (Caliper mobility-shift kinase assay, Fluorescein-RFARKGSLRQKNV peptide substrate)). Conditions: example compounds at a final concentration of 1.14 μM (±0.15 μM).
T1 construct: Active human full-length recombinant PKC βII; purchased Invitrogen GmbH, Darmstadt, Germany
Type: biochemical
Method in brief: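 Compounds were tested at 1.14 μM final. Enzyme was activated by PS, DAG and CaCl2 in Hepes pH 7.4 with MgCl2, with substrate 3 μM and ATP 120 μM as pre-mix concentrations. After 60 min at 32 °C and an EDTA stop, Caliper separation gave fractional turnover, which was normalised to no-compound and no-enzyme controls.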

T1 sequence (P05771 1-673 isoform P05771-2): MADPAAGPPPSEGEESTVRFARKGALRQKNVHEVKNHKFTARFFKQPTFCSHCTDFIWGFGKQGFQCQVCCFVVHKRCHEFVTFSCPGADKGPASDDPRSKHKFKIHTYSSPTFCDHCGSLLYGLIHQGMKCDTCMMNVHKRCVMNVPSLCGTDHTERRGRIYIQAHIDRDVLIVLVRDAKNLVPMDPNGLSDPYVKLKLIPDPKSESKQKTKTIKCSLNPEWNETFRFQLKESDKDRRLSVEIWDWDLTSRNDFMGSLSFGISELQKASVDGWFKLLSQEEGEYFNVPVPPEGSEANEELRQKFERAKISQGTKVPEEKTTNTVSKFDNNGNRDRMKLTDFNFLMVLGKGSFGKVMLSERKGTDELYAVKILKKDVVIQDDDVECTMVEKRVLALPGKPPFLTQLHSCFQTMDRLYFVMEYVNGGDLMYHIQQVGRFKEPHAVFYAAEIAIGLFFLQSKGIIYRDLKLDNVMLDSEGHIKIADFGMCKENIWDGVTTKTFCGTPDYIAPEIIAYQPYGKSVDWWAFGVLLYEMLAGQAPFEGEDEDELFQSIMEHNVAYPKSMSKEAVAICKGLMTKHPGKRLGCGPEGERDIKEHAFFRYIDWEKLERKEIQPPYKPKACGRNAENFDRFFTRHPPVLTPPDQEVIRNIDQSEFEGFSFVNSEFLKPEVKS

| SMILES | inhibition at 1.14 µM [%] |
| --- | --- |
| Cc1n[nH]c2nc(-c3ccc(O)cc3)cc(C(=O)N3CCNCC3c3ccccc3C(F)(F)F)c12 (stereo not drawn) [Example 93, [6-(4-Hydroxy-phenyl)-3-methyl-1H-pyrazolo[3,4-b]pyridin-4-yl]-[2-(2-trifluoromethyl-phenyl)-piperazin-1-yl]-methanone] | 79 |
| Cc1n[nH]c2nc(-c3ccc(O)cc3)cc(C(=O)N3CCNCC3c3ccc(C(C)C)cc3)c12 (stereo not drawn) [Example 94, [6-(4-Hydroxy-phenyl)-3-methyl-1H-pyrazolo[3,4-b]pyridin-4-yl]-[2-(4-isopropyl-phenyl)-piperazin-1-yl]-methanone] | 90 |
| Cc1n[nH]c2nc(-c3ccc(O)cc3)cc(C(=O)N3CCNCC3c3ccccc3F)c12 (stereo not drawn) [Example 95, [2-(2-Fluoro-phenyl)-piperazin-1-yl]-[6-(4-hydroxy-phenyl)-3-methyl-1H-pyrazolo[3,4-b]pyridin-4-yl]-methanone] | 99 |
| Cc1n[nH]c2nc(-c3ccc(O)cc3)cc(C(=O)N3CCNCC3c3ccc(F)cc3F)c12 (stereo not drawn) [Example 96, [2-(2,4-Difluoro-phenyl)-piperazin-1-yl]-[6-(4-hydroxy-phenyl)-3-methyl-1H-pyrazolo[3,4-b]pyridin-4-yl]-methanone] | 98 |
| Cc1n[nH]c2nc(-c3ccc(O)cc3)cc(C(=O)N3CCNCC3c3ccc(C(F)(F)F)cc3)c12 (stereo not drawn) [Example 97, [6-(4-Hydroxy-phenyl)-3-methyl-1H-pyrazolo[3,4-b]pyridin-4-yl]-[2-(4-trifluoromethyl-phenyl)-piperazin-1-yl]-methanone] | 96 |
| Cc1n[nH]c2nc(-c3ccc(O)cc3)cc(C(=O)NCC3CNC3)c12 [Example 98, 6-(4-Hydroxy-phenyl)-3-methyl-1H-pyrazolo[3,4-b]pyridine-4-carboxylic acid (azetidin-3-ylmethyl)-amide] | 89 |
| Cc1n[nH]c2nc(-c3ccc(O)cc3)cc(C(=O)N3CCNCC3c3cccc(C(F)(F)F)c3)c12 (stereo not drawn) [Example 99, [6-(4-Hydroxy-phenyl)-3-methyl-1H-pyrazolo[3,4-b]pyridin-4-yl]-[2-(3-trifluoromethyl-phenyl)-piperazin-1-yl]-methanone] | 97 |
| Cc1n[nH]c2nc(-c3ccc(O)cc3)cc(C(=O)N3CCNCC3c3c(F)cccc3F)c12 (stereo not drawn) [Example 100, [2-(2,6-Difluoro-phenyl)-piperazin-1-yl]-[6-(4-hydroxy-phenyl)-3-methyl-1H-pyrazolo[3,4-b]pyridin-4-yl]-methanone] | 96 |
| Cc1n[nH]c2nc(-c3ccc(O)cc3)cc(C(=O)N3CCNCC3c3cccc(Br)c3)c12 (stereo not drawn) [Example 101, [2-(3-Bromo-phenyl)-piperazin-1-yl]-[6-(4-hydroxy-phenyl)-3-methyl-1H-pyrazolo[3,4-b]pyridin-4-yl]-methanone] | 99 |
| Cc1n[nH]c2nc(-c3ccc(O)cc3)cc(C(=O)N3CCNCC3c3ccccc3Cl)c12 (stereo not drawn) [Example 102, [2-(2-Chloro-phenyl)-piperazin-1-yl]-[6-(4-hydroxy-phenyl)-3-methyl-1H-pyrazolo[3,4-b]pyridin-4-yl]-methanone] | 93 |
| Cc1n[nH]c2nc(-c3ccc(O)cc3)cc(C(=O)N[C@H]3CC[C@@H](N)CC3)c12 [Example 103, 6-(4-Hydroxy-phenyl)-3-methyl-1H-pyrazolo[3,4-b]pyridine-4-carboxylic acid (cis-4-amino-cyclohexyl)-amide] | 72 |
| Cc1n[nH]c2nc(-c3ccc(O)cc3)cc(C(=O)NC(CN)c3ccccc3)c12 (stereo not drawn) [Example 104, 6-(4-Hydroxy-phenyl)-3-methyl-1H-pyrazolo[3,4-b]pyridine-4-carboxylic acid (2-amino-1-phenyl-ethyl)-amide] | 94 |
| Cc1n[nH]c2nc(-c3ccc(O)cc3)cc(C(=O)NC[C@H]3CC[C@@H](N)CC3)c12 [Example 105, 6-(4-Hydroxy-phenyl)-3-methyl-1H-pyrazolo[3,4-b]pyridine-4-carboxylic acid (cis-4-amino-cyclohexylmethyl)-amide] | 53 |
| Cc1n[nH]c2nc(-c3ccc(O)cc3)cc(C(=O)NC3CCNC3)c12 (stereo not drawn) [Example 106, 6-(4-Hydroxy-phenyl)-3-methyl-1H-pyrazolo[3,4-b]pyridine-4-carboxylic acid pyrrolidin-3-ylamide] | 77 |
| Cc1n[nH]c2nc(-c3ccc(O)cc3)cc(C(=O)NC(CN)c3ccc(F)cc3)c12 (stereo not drawn) [Example 107, 6-(4-Hydroxy-phenyl)-3-methyl-1H-pyrazolo[3,4-b]pyridine-4-carboxylic acid [2-amino-1-(4-fluoro-phenyl)-ethyl]-amide] | 83 |
| Cc1n[nH]c2nc(-c3ccc(O)cc3)cc(C(=O)N3CCNCC34CCCC4)c12 [Example 108, (6,9-Diaza-spiro[4.5]dec-6-yl)-[6-(4-hydroxy-phenyl)-3-methyl-1H-pyrazolo[3,4-b]pyridin-4-yl]-methanone] | 96 |
| CNC1CCN(C(=O)c2cc(-c3ccc(O)cc3)nc3[nH]nc(C)c23)CC1 [Example 109, [6-(4-Hydroxy-phenyl)-3-methyl-1H-pyrazolo[3,4-b]pyridin-4-yl]-(4-methylamino-piperidin-1-yl)-methanone] | 88 |

| SMILES | inhibition at 1.14 µM [%] |
| --- | --- |
| Cc1n[nH]c2nc(-c3ccc(O)cc3)cc(C(=O)N3CCC[C@@H](CN)C3)c12 [Example 110, ((S)-3-Aminomethyl-piperidin-1-yl)-[6-(4-hydroxy-phenyl)-3-methyl-1H-pyrazolo[3,4-b]pyridin-4-yl]-methanone] | 65 |
| Cc1n[nH]c2nc(-c3ccc(O)cc3)cc(C(=O)N3CC4CCC(C3)N4)c12 [Example 111, 3,8-Diaza-bicyclo[3.2.1]oct-3-yl-[6-(4-hydroxy-phenyl)-3-methyl-1H-pyrazolo[3,4-b]pyridin-4-yl]-methanone] | 97 |
| Cc1n[nH]c2nc(-c3ccc(O)cc3)cc(C(=O)N3C[C@@H](C)NC[C@@H]3C)c12 [Example 112, ((2S,5R)-2,5-Dimethyl-piperazin-1-yl)-[6-(4-hydroxy-phenyl)-3-methyl-1H-pyrazolo[3,4-b]pyridin-4-yl]-methanone] | 92 |
| Cc1n[nH]c2nc(-c3ccc(O)cc3)cc(C(=O)N3CC(C)(C)NCC3C)c12 (stereo not drawn) [Example 113, [6-(4-Hydroxy-phenyl)-3-methyl-1H-pyrazolo[3,4-b]pyridin-4-yl]-(2,5,5-trimethyl-piperazin-1-yl)-methanone] | 93 |
| Cc1n[nH]c2nc(-c3ccc(O)cc3)cc(C(=O)N3CCNCC3C(F)(F)F)c12 (stereo not drawn) [Example 114, [6-(4-Hydroxy-phenyl)-3-methyl-1H-pyrazolo[3,4-b]pyridin-4-yl]-(2-trifluoromethyl-piperazin-1-yl)-methanone] | 87 |
| CCC1(NC(=O)c2cc(-c3ccc(O)cc3)nc3[nH]nc(C)c23)CCCNC1 (stereo not drawn) [Example 115, 6-(4-Hydroxy-phenyl)-3-methyl-1H-pyrazolo[3,4-b]pyridine-4-carboxylic acid (3-ethyl-piperidin-3-yl)-amide] | 83 |
| Cc1n[nH]c2nc(-c3ccc(O)cc3)cc(C(=O)NCC3(N)CCCCCC3)c12 [Example 116, 6-(4-Hydroxy-phenyl)-3-methyl-1H-pyrazolo[3,4-b]pyridine-4-carboxylic acid (1-amino-cycloheptylmethyl)-amide] | 76 |
| Cc1n[nH]c2nc(-c3ccc(O)cc3)cc(C(=O)N3CCCC(C)(N)C3)c12 (stereo not drawn) [Example 117, (3-Amino-3-methyl-piperidin-1-yl)-[6-(4-hydroxy-phenyl)-3-methyl-1H-pyrazolo[3,4-b]pyridin-4-yl]-methanone] | 89 |
| CCCC1(NC(=O)c2cc(-c3ccc(O)cc3)nc3[nH]nc(C)c23)CCNCC1 [Example 118, 6-(4-Hydroxy-phenyl)-3-methyl-1H-pyrazolo[3,4-b]pyridine-4-carboxylic acid (4-propyl-piperidin-4-yl)-amide] | 98 |
| Cc1n[nH]c2nc(-c3ccc(O)cc3)cc(C(=O)N[C@@H]3CCC[C@H]3N)c12 [Example 120, 6-(4-Hydroxy-phenyl)-3-methyl-1H-pyrazolo[3,4-b]pyridine-4-carboxylic acid ((1R,2R)-2-amino-cyclopentyl)-amide] | 88 |
| Cc1n[nH]c2nc(-c3ccc(O)cc3)cc(C(=O)N3CC(C)(C)NCC3(C)C)c12 [Example 121, [6-(4-Hydroxy-phenyl)-3-methyl-1H-pyrazolo[3,4-b]pyridin-4-yl]-(2,2,5,5-tetramethyl-piperazin-1-yl)-methanone] | 99 |
| Cc1n[nH]c2nc(-c3ccc(O)cc3)cc(C(=O)N3CCC(C)(N)C3)c12 (stereo not drawn) [Example 122, (3-Amino-3-methyl-pyrrolidin-1-yl)-[6-(4-hydroxy-phenyl)-3-methyl-1H-pyrazolo[3,4-b]pyridin-4-yl]-methanone] | 89 |
| CCCC1(NC(=O)c2cc(-c3ccc(O)cc3)nc3[nH]nc(C)c23)CCCNC1 (stereo not drawn) [Example 124, 6-(4-Hydroxy-phenyl)-3-methyl-1H-pyrazolo[3,4-b]pyridine-4-carboxylic acid (3-propyl-piperidin-3-yl)-amide] | 78 |
| CCCC1(NC(=O)c2cc(-c3ccc(O)cc3)nc3[nH]nc(C)c23)CCNC1 (stereo not drawn) [Example 125, 6-(4-Hydroxy-phenyl)-3-methyl-1H-pyrazolo[3,4-b]pyridine-4-carboxylic acid (3-propyl-pyrrolidin-3-yl)-amide] | 52 |
| CCC(CCN)NC(=O)c1cc(-c2ccc(O)cc2)nc2[nH]nc(C)c12 (stereo not drawn) [Example 127, 6-(4-Hydroxy-phenyl)-3-methyl-1H-pyrazolo[3,4-b]pyridine-4-carboxylic acid (3-amino-1-ethyl-propyl)-amide] | 90 |
| Cc1n[nH]c2nc(-c3ccc(O)cc3)cc(C(=O)NC(C)(C)CCN)c12 [Example 128, 6-(4-Hydroxy-phenyl)-3-methyl-1H-pyrazolo[3,4-b]pyridine-4-carboxylic acid (3-amino-1,1-dimethyl-propyl)-amide] | 91 |
